Reference: US20150045410A1, “METHOD OF REGULATING CFTR EXPRESSION AND PROCESSING” (University of Iowa Research Foundation, priority 2012, published 2015)

Columns and labels:
CFTR-ΔF508 [1] = assay: Transepithelial Cl^− current in primary human CFTR null airway epithelia (CFTR Q493X/S912X) transduced with Ad-CFTR-ΔF508; format: cell-based; conditions: CFTR null epithelia (Q493X/S912X) expressing Ad-CFTR-ΔF508, pretreated with oligonucleotide
Experimental: Transepithelial Cl^− current measurements were made in Ussing chambers about 2 weeks post-seeding (Itani, 0. A. et al. Human cystic fibrosis airway epithelia have reduced Cl− conductance but not increased Na+ conductance. Proc. Natl. Acad. Sci. USA 108, 10260-10265 (2011)). Briefly, primary cultures were mounted in a modified Ussing chamber (Jim's Instruments, 8 wells per instrument). Transepithelial Cl^− current was measured under short-circuit current conditions. Cultures were incubated overnight with 10 μM forskolin and 100 μM 3-isobutyl-1-methylxanthine (IBMX). After measuring baseline current, the transepithelial current (It) response to sequential apical addition of 100 μM amiloride (Amil), 100 μM 4,4′-diisothiocyanoto-stilbene-2,2′-disulfonic acid (DIDS), 4.8 mM [Cl^−], 10 μM forskolin and 100 μM 3-isobutyl-1-methylxanthine (IBMX), and 100 μM GlyH-101 was measured. Studies were conducted with a Cl^− concentration gradient containing 135 mM NaCl, 1.2 mM MgCl2, 1.2 mM CaCl2, 2.4 mM K2PO4, 0.6 mM KH2PO4, 5 mM dextrose, and 5 mM Hepes (pH 7.4) on the basolateral surface, and gluconate substituted for Cl^− on the apical side. […]

CFTR-ΔF508 [2] = assay: Immunoblot (HA antibody) in HeLa cells stably expressing HA-tagged CFTR-ΔF508; format: cell-based; conditions: CFTR-ΔF508-3HA
Experimental: (Wang, X. et al. Hsp90 cochaperone Aha1 downregulation rescues misfolding of CFTR in cystic fibrosis. Cell 127, 803-815 (2006)): Cell lines or primary cultures were washed with PBS and lysed in freshly prepared lysis buffer (1% Triton, 25 mM Tris pH 7.4, 150 mM NaCl, protease inhibitors (cOmplete™, mini, EDTA-free, Roche)) for 30 min at 4° C. The lysates were centrifuged at 14,000 rpm for 20 min at 4° C., and the supernatant quantified by BCA Protein Assay kit (Pierce). 20 μg (Calu-3) and 50 μg (human primary airway epithelial cultures, HeLa, HEK293T) of protein per lane was separated on a 7% SDS-PAGE gel for western blot analysis. Antibodies were procured for SIN3A (1:1000, R&D Systems), CTCF (1:500, Cell Signaling Technology), CFTR (R-769 (1:2000, CFFT), MM13-4 (1:1000, Millipore), M3A7 (1:500, Millipore), 24-1 (1:1000, R&D Systems)), hemagglutinin (1; 1000, Covance) and α-tubulin (1:10000, Sigma). Protein abundance was quantified by densitometry using an Alphalnnotech Fluorochem Imager (Alphalnnotech). For CFTR, band B and C were quantified separately. All bands were normalized to α-tubulin. Experiments were performed in triplicates per donor and mean and standard error of the mean determined using unpaired two-tailed t-test. […] If signal was detected, the stripping procedure was repeated till no signal was observed. […]

For “SIN3A DsiRNA: Dicer-substrate siRNA against SIN3A, sense SEQ ID NO: 6, antisense SEQ ID NO: 7 (sense GCGAUACAUGAAUUCAGAUACUACC; antisense GGUAGUAUCUGAAUUCAUGUAUCGCUC; chemistry not given here)”, the “CFTR-mediated Cl^− current” value (CFTR-ΔF508 [1]) was “restored” and the “abundance of the mature, fully glycosylated CFTR band C” value (CFTR-ΔF508 [2]) was “increased”.
For “miR-138 mimic: synthetic modified RNA duplex, sense SEQ ID NO: 4, antisense SEQ ID NO: 5, showing miR-138-like activity”, the “CFTR-mediated Cl^− current” value (CFTR-ΔF508 [1]) was “restored” and the “abundance of the mature, fully glycosylated CFTR band C” value (CFTR-ΔF508 [2]) was “increased”.
